Experimental data published in patent publication US9670217B2, “Process for preparing chlorins and their pharmaceutical uses” (UNIVERSIDADE DE COIMBRA, priority 2008, dated 2017).

Key:
Format in all cases: cell-based
[1] = tested on: SKMEL 188 (human melanoma); assay: Cell photosensitization, filtered halogen lamp, MTT; conditions: [Luzitin-Cl] = 20 μM
Description: Irradiation in in vitro experiments was performed using either a halogen lamp or a laser source. In the first case, a 500 W halogen lamp was placed 50 cm from the irradiated plate to insure a homogeneous irradiation. A cooled water filter (d=35 mm) and a 600 nm cut off filter were placed between the lamp and samples. The fluence rate reaching samples was 3 mW/cm^2. The emission spectrum of the halogen lamp was recorded using a spectroradiometer IL2000 (Spectrocube), FIG. 1. In the second case, three Lynx external cavity diode lasers TEC 500 powered by PilotPC 500 Laser Controllers (Sacher Lasertechnik, Marburg, Germany) were employed. The laser energies were stable at 40 mW for the 748 nm laser, 10 mW for the 649 laser and 10 mW for the 633 laser. The laser energies were regularly measured with a Coherent LaserCheck. In some in vitro experiments, the laser light was focused on an optical fiber through a collimator in microbench, and delivered to the cells. This system reduced the 748 nm laser light to 30 mW.
The cell lines employed in halogen lamp irradiation were the MCF7 (human breast carcinoma), SKMEL 188 (human melanoma) and S91/I3 (mouse melanoma) cells. They were used both for cytotoxicity and photocytotoxicity experiments. MCF7 cells were grown supplemented with 10% fetal calf (FBS) serum, 25 units/ml of penicillin, and 25 μg/ml of streptomycin. Human melanoma cells SKMEL-188 were grown in F10 medium supplemented with 10% fetal calf serum (FCS), 100 units/ml of penicillin, and 100 μg/ml of streptomycin. I3 subline of Cloudman S91 melanoma cells were cultured in RPMI 1640 medium supplemented with 100 units/ml of penicillin, 100 μg/ml streptomycin and 5% fetal calf serum (FCS) (Gibco BRL). […]
Cytotoxicity. Cell metabolic efficiency and viability were determined by the uptake and reduction of 3-(4,5-dimethylthiazol-2-yl)-2,5-diphenyl tetrazolium bromide (MTT) to an insoluble formazan dye by cellular microsomal enzymes. […] The 96-well culture plate was shaken for 0.5 min at room temperature and immediately read for optical density at 560 nm using an ELISA reader (GENios Plus; Tecan Trading AG, Switzerland). The cell survival was expressed by the absorbance changes of the formazan salt, and survival rate was given as the percent ratio of viable treated cells vs. the number of viable untreated cells. Number of cells was determined from linear regression of a calibration curve.
Cell photosensitization. […] The values were obtained from three independent experiments and expressed as percent of cell survival with reference to control cells, which were manipulated in the same manner but without incubation with photosensitizer and without illumination.

S91/I3 (mouse melanoma) = assay: Cytotoxicity in the dark, resazurin assay; conditions: S91I3, incubation 40 h in the dark; read-out: IC50 dark toxicity
Description: (§1) The cell lines employed in laser irradiation were the HT-29 (human colon carcinoma), PC-3 (human prostate carcinoma), SW2 (human small cell lung cancer), A-549 (human non-small cell lung cancer). S91/I3 (mouse melanoma) and CT26 (mouse colon carcinoma). They were used both for cytotoxicity and photocytotoxicity experiments. PC-3. SW2 and S91113 cells were cultured in RPMI-1640 medium (Sigma-Aldrich, Steinheim, Germany) and HT-29, A-549 and CT26 cells were cultured in Dulbecco's Modified Eagle Medium (DMEM) (Cambrex Bioscience, Verviers, Belgium). Both cell culture mediums were supplemented with 10% heat-inactivated Fetal Bovine Serum (FBS) (Cambrex Bioscience, Verviers, Belgium) and 100 IU/ml penicillin-100 μg/ml streptomycin (Cambrex Bioscience, Verviers, Belgium). The DMEM medium used for CT26 cells was also supplemented with HEPES 10 mM. Cell lines were maintained in 75 cm^2 flasks (Orange Scientific, Braine-l'Alleud, Belgium) at 37° C. in humidified atmosphere with 5% CO2. For the in vitro studies, cells at 85-90% confluence, were detached with Trypsin-Versene-EDTA solution (Cambrex Bioscience, Verviers, Belgium), counted and seeded in flat-bottom 96-well plates at the desired densities.
(§2) Cell viability assay. In the end of the experiences cell viability was evaluated by the resazurin reduction assay. Briefly, resazurin (Sigma-Aldrich, Steinhelm, Germany) stock solution (0.1 mg/ml in phosphate buffer saline (PBS) pH 7.4) was diluted 10% in culture medium without FBS or antibiotics and 200 μl were added to the cells in each well. Plates were incubated for 3-4 h at 37° C. The absorbance values of each well were measured at 540 nm and 630 nm using a microplate reader Multiskan Ex (Thermo-Electron Corporation, Vartaa, Finland).
(§3) Cytotoxicity. Cells were seeded in flat-bottom 96-well plates (Orange Scientific, Braine-l'Alleud, Belgium) in 100 μl of culture medium and were allowed to adhere overnight. The photosensitizer was added to the cells (diluted in 100 μl culture medium) at final concentrations between 0.01 and 1 mM. Each concentration was tested in quadruplicate. The incubation periods in the dark at 37° C. were two times the doubling time for the tested cell line. After the incubation the cell viability was evaluated. In parallel control experiments, cells were incubated without the drug. Cytotoxicity was quantified by expressing cell death relatively to untreated cells (% of control cells). The results were plotted as dose response curves (% of cell death as a function of the concentration of the DRUG), which allow the determination of the concentration that inhibit 50% of cell growth (IC50).

[2] = tested on: SW2 (human small cell lung cancer); assay: Cytotoxicity in the dark, resazurin assay; conditions: SW2, incubation 48 h in the dark; read-out: IC50 dark toxicity
Description: as §1, §2, §3

[3] = tested on: HT-29 (human colon carcinoma); assay: Cytotoxicity in the dark, resazurin assay; conditions: HT-29, dark
Description: as §1, §2, §3

Row | SMILES | LD50 (light dose to kill 50% of the cells) [1] [J/cm^2] | LD90 (light dose to kill 90% of the cells) [1] [J/cm^2] | IC50 (S91/I3 (mouse melanoma)) [µM] | IC50 [2] [µM] | highest concentration that causes relatively no effect in viability in the dark [3] [µM]
1 | O=S(=O)(O)c1ccc(Cl)c(-c2c3nc(c(-c4cc(S(=O)(=O)O)ccc4Cl)c4ccc([nH]4)c(-c4cc(S(=O)(=O)O)ccc4Cl)c4nc(c(-c5cc(S(=O)(=O)O)ccc5Cl)c5ccc2[nH]5)CC4)CC3)c1 [Luzitin-Cl, 5,10,15,20-tetrakis(2-chloro-5-sulfonylphenyl)bacteriochlorin] | 0.1 | 0.32 | 500 | 400 | –
2 | CNS(=O)(=O)c1ccc(F)c(-c2c3nc(c(-c4cc(S(=O)(=O)NC)ccc4F)c4ccc([nH]4)c(-c4cc(S(=O)(=O)NC)ccc4F)c4nc(c(-c5cc(S(=O)(=O)NC)ccc5F)c5ccc2[nH]5)CC4)CC3)c1 [Luzitin-FMet, 5,10,15,20-tetrakis(2-fluoro-5-N-methylsulfamoylphenyl)bacteriochlorin] | – | – | – | – | 50
